In US8349883B2, “Hydroxamate-based inhibitors of deacetylases B” (Novartis AG, priority 2008, dated 2013):
pIC50: −log10 of the molar value.

Assays:
HDAC-1 = biological target: T1, HDAC-1 (Homo sapiens, UniProt Q13547); assay: HDAC inhibition assay (purified GST-HDAC protein); type: biochemical
T1 construct: made in house; host or cells: Sf9 or Sf21 insect cells (baculovirus, donor vector pFB-GSTX3)

HCT116 = HCT116 IC50; type: cell-based; settings: Homo sapiens, HCT-116

T1 sequence (Q13547 whole entry, species assumed): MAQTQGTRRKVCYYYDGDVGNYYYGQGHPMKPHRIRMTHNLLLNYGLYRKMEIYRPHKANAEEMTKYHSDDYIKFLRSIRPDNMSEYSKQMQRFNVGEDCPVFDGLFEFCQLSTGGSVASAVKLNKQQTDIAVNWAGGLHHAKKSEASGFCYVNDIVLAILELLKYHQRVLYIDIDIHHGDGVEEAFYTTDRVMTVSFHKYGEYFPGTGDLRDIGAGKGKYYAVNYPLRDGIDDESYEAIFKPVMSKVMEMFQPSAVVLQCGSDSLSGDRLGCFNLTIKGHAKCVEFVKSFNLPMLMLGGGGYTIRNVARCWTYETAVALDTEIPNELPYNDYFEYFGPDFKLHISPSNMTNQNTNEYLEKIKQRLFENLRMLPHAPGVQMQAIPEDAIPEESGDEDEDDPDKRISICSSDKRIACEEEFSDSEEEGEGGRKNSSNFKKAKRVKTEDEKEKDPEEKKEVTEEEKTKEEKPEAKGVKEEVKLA

Row | SMILES | pIC50 (HDAC-1) | pIC50 (HCT116)
1 | CC(C)(O)c1nn2ccccc2c1CCN1CCC[C@@H]1c1ccc(CCC(=O)NO)cc1 [Compound 120, N-Hydroxy-3-[4-((R)-1-{2-[2-(1-hydroxy-1-methyl-ethyl)-pyrazolo[1,5-a]pyridin-3-yl]-ethyl}-pyrrolidin-2-yl)-phenyl]-propionamide] | 7.12 | 6.29
2 | O=C(/C=C/c1ccc(C2CCCN2CCc2ccccn2)cc1)NO (stereo not drawn) [Compound 34, (E)-N-Hydroxy-3-{4-[1-(2-pyridin-2-yl-ethyl)-pyrrolidin-2-yl]-phenyl}-acrylamide] | 7.68 | 7.11
3 | O=C(/C=C/c1ccc(C2CCCN2CCc2c[nH]c3ccccc23)cc1)NO (stereo not drawn) [Compound 3, (E)-N-Hydroxy-3-(4-{1-[2-(1H-indol-3-yl)-ethyl]-pyrrolidin-2-yl}-phenyl)-acrylamide] | 9.00 | 8.92
4 | O=C(/C=C/c1ccc([C@@H]2CCCN2CCc2nnn(C3CCC3)n2)cc1)NO [Compound 105, (E)-3-(4-{(S)-1-[2-(2-Cyclobutyl-2H-tetrazol-5-yl)-ethyl]-pyrrolidin-2-yl}-phenyl)-N-hydroxy-acrylamide] | 6.92 | 6.80
5 | O=C(/C=C/c1ccc(C2CCCN2CC(O)c2ccccc2)cc1)NO (stereo not drawn) [Compound 28, (E)-N-Hydroxy-3-{4-[1-(2-hydroxy-2-phenyl-ethyl)-pyrrolidin-2-yl]-phenyl}-acrylamide] | 7.60 | 7.07
6 | O=C(/C=C/c1ccc(C2CCCN2CCc2c(-c3ccccc3)[nH]c3ccccc23)cc1)NO (stereo not drawn) [Compound 7, (E)-N-Hydroxy-3-(4-{1-[2-(2-phenyl-1H-indol-3-yl)-ethyl]-pyrrolidin-2-yl}-phenyl)-acrylamide] | 7.92 | 8.52
7 | C[Si](C)(C)Cn1cc(CCN2CCC[C@H]2c2ccc(/C=C/C(=O)NO)cc2)nn1 [Compound 77, (E)-N-Hydroxy-3-(4-{(S)-1-[2-(1-trimethylsilanylmethyl-1H-[1,2,3]triazol-4-yl)-ethyl]-pyrrolidin-2-yl}-phenyl)-acrylamide] | 7.60 | 6.96
8 | Cc1[nH]c2ccccc2c1CCN1CCN(C)CC1c1ccc(/C=C/C(=O)NO)cc1 (stereo not drawn) [Compound 88, (E)-N-Hydroxy-3-(4-{4-methyl-1-[2-(2-methyl-1H-indol-3-yl)-ethyl]-piperazin-2-yl}-phenyl)-acrylamide] | 8.05 | 7.62
9 | Cc1nn(C)c(C)c1CCN1CCC[C@@H]1c1ccc(/C=C/C(=O)NO)cc1 [Compound 110, (E)-N-Hydroxy-3-(4-{(R)-1-[2-(1,3,5-trimethyl-1H-pyrazol-4-yl)-ethyl]-pyrrolidin-2-yl}-phenyl)-acrylamide] | 7.00 | 6.74
10 | O=C(/C=C/c1ccc([C@@H]2CCCN2CCc2nnn(-c3ccc([N+](=O)[O-])cc3)n2)cc1)NO [Compound 106, (E)-N-Hydroxy-3-[4-((S)-1-{2-[2-(4-nitro-phenyl)-2H-tetrazol-5-yl]-ethyl}-pyrrolidin-2-yl)-phenyl]-acrylamide] | 7.17 | 6.74
11 | CC(C)(C)n1nnc(CCN2CCC[C@H]2c2ccc(/C=C/C(=O)NO)cc2)n1 [Compound 104, (E)-3-(4-{(S)-1-[2-(2-tert-Butyl-2H-tetrazol-5-yl)-ethyl]-pyrrolidin-2-yl}-phenyl)-N-hydroxy-acrylamide] | 7.38 | 6.44
12 | O=C(/C=C/c1ccc([C@@H]2CCCCCN2CCc2cnn3ccccc23)cc1)NO [Compound 86, (E)-N-Hydroxy-3-{4-[(S)-1-(2-pyrazolo[1,5-a]pyridin-3-yl-ethyl)-azepan-2-yl]-phenyl}-acrylamide] | 8.00 | 7.38
13 | O=C(/C=C/c1ccc([C@@H]2CCCN2CCC2CCOCC2)cc1)NO [Compound 42, (E)-N-Hydroxy-3-(4-{(S)-1-[2-(tetrahydro-pyran-4-yl)-ethyl]-pyrrolidin-2-yl}-phenyl)-acrylamide] | 7.49 | 7.28

Second part, the compound after the results:

Row | pIC50 (HDAC-1) | pIC50 (HCT116) | SMILES
14 | 8.52 | 8.40 | Cc1nc2ccccn2c1CCN1CCC[C@H]1c1ccc(/C=C/C(=O)NO)cc1 [Compound 54, (E)-N-Hydroxy-3-(4-{(S)-1-[2-(2-methyl-imidazo[1,2-a]pyridin-3-yl)-ethyl]-pyrrolidin-2-yl}-phenyl)-acrylamide]
15 | 9.00 | 9.46 | CCc1nn2ccccc2c1CCN1CCC[C@H]1c1ccc(/C=C/C(=O)NO)cc1 [Compound 47, (E)-3-(4-{(S)-1-[2-(2-Ethyl-pyrazolo[1,5-a]pyridin-3-yl)-ethyl]-pyrrolidin-2-yl}-phenyl)-N-hydroxy-acrylamide]
16 | 8.10 | 7.37 | O=C(/C=C/c1ccc(C2CCCN2CCc2ccc([N+](=O)[O-])cc2)cc1)NO (stereo not drawn) [Compound 24, (E)-N-Hydroxy-3-(4-{1-[2-(4-nitro-phenyl)-ethyl]-pyrrolidin-2-yl}-phenyl)-acrylamide]
17 | 8.15 | 7.44 | O=C(/C=C/c1ccc([C@@H]2CCCN2CCc2cn[nH]c2)cc1)NO [Compound 58, (E)-N-Hydroxy-3-(4-{(S)-1-[2-(1H-pyrazol-4-yl)-ethyl]-pyrrolidin-2-yl}-phenyl)-acrylamide]
18 | 9.00 | 9.30 | Cc1[nH]nc(C(C)(C)C)c1CCN1CCC[C@H]1c1ccc(/C=C/C(=O)NO)cc1 [Compound 100, (E)-3-(4-{(S)-1-[2-(3-tert-Butyl-5-methyl-1H-pyrazol-4-yl)-ethyl]-pyrrolidin-2-yl}-phenyl)-N-hydroxy-acrylamide]
19 | 8.00 | 7.52 | Cc1nn(C)c(C)c1CCN1CCC[C@H]1c1ccc(CCC(=O)NO)cc1 [Compound 112, N-Hydroxy-3-(4-{(S)-1-[2-(1,3,5-trimethyl-1H-pyrazol-4-yl)-ethyl]-pyrrolidin-2-yl}-phenyl)-propionamide]
20 | 8.52 | 8.70 | CC(C)(C)c1[nH]c2cc(NS(C)(=O)=O)ccc2c1CCN1CCCC1c1ccc(/C=C/C(=O)NO)cc1 (stereo not drawn) [Compound 10, (E)-3-(4-{1-[2-(2-tert-Butyl-6-methanesulfonylamino-1H-indol-3-yl)-ethyl]-pyrrolidin-2-yl}-phenyl)-N-hydroxy-acrylamide]
21 | 8.85 | 9.00 | Cc1oc(-c2ccccc2)nc1CCN1CCC[C@H]1c1ccc(/C=C/C(=O)NO)cc1 [Compound 57, (E)-N-Hydroxy-3-(4-{(S)-1-[2-(5-methyl-2-phenyl-oxazol-4-yl)-ethyl]-pyrrolidin-2-yl}-phenyl)-acrylamide]
22 | 8.85 | 8.30 | O=C(/C=C/c1cc(F)c([C@@H]2CCCN2CCc2cnn3ccccc23)c(F)c1)NO [Compound 94, (E)-3-{3,5-Difluoro-4-[(S)-1-(2-pyrazolo[1,5-a]pyridin-3-yl-ethyl)-pyrrolidin-2-yl]-phenyl}-N-hydroxy-acrylamide]
23 | 8.30 | 7.17 | O=C(/C=C/c1ccc(C2CCCN2CC(O)c2ccc(Cl)cc2)cc1)NO (stereo not drawn) [Compound 31, (E)-3-(4-{1-[2-(4-Chloro-phenyl)-2-hydroxy-ethyl]-pyrrolidin-2-yl}-phenyl)-N-hydroxy-acrylamide]
24 | 8.22 | 7.96 | O=C(/C=C/c1ccc(C2CCCN2CCc2ccccc2F)cc1)NO (stereo not drawn) [Compound 27, (E)-3-(4-{1-[2-(2-Fluoro-phenyl)-ethyl]-pyrrolidin-2-yl}-phenyl)-N-hydroxy-acrylamide]
25 | 8.52 | 8.15 | O=C(/C=C/c1ccc(C2CCCN2CCc2ccccc2)cc1)NO (stereo not drawn) [Compound 19, (E)-N-Hydroxy-3-[4-(1-phenethyl-pyrrolidin-2-yl)-phenyl]-acrylamide]
26 | 8.30 | 8.05 | O=C(/C=C/c1ccc([C@@H]2CCCN2CCc2ccsc2)cc1)NO [Compound 35, (E)-N-Hydroxy-3-{4-[(S)-1-(2-thiophen-3-yl-ethyl)-pyrrolidin-2-yl]-phenyl}-acrylamide]
27 | 8.15 | 7.89 | O=C(/C=C/c1ccc([C@@H]2CCCN2CCc2ccc(Cl)cc2)cc1)NO [Compound 22, (E)-3-(4-{(S)-1-[2-(4-Chloro-phenyl)-ethyl]-pyrrolidin-2-yl}-phenyl)-N-hydroxy-acrylamide]
28 | 8.70 | 8.96 | Cc1nn(-c2ccccc2)c(C)c1CCN1CCC[C@H]1c1ccc(/C=C/C(=O)NO)cc1 [Compound 55, (E)-3-(4-{(S)-1-[2-(3,5-Dimethyl-1-phenyl-1H-pyrazol-4-yl)-ethyl]-pyrrolidin-2-yl}-phenyl)-N-hydroxy-acrylamide]
29 | 8.70 | 8.52 | CC(C)(O)c1nn2ccccc2c1CCN1CCC[C@H]1c1ccc(/C=C/C(=O)NO)cc1 [Compound 48, (E)-N-Hydroxy-3-[4-((S)-1-{2-[2-(1-hydroxy-1-methyl-ethyl)-pyrazolo[1,5-a]pyridin-3-yl]-ethyl}-pyrrolidin-2-yl)-phenyl]-acrylamide]
30 | 9.00 | 9.40 | O=C(/C=C/c1ccc([C@@H]2CCCN2CCc2c(-c3cccnc3)nn3ccccc23)cc1)NO [Compound 50, (E)-N-Hydroxy-3-(4-{(S)-1-[2-(2-pyridin-3-yl-pyrazolo[1,5-a]pyridin-3-yl)-ethyl]-pyrrolidin-2-yl}-phenyl)-acrylamide]
31 | 8.62 | 8.10 | Cc1nn2ccccc2c1CCN1CCC[C@@H]1c1ccc(/C=C/C(=O)NO)cc1 [Compound 45, (E)-N-Hydroxy-3-(4-{(R)-1-[2-(2-methyl-pyrazolo[1,5-a]pyridin-3-yl)-ethyl]-pyrrolidin-2-yl}-phenyl)-acrylamide]
32 | 8.52 | 8.52 | O=C(/C=C/c1ccc([C@@H]2CCCN2CCc2c(-c3cnccn3)nn3ccccc23)cc1)NO [Compound 49, (E)-N-Hydroxy-3-(4-{(S)-1-[2-(2-pyrazin-2-yl-pyrazolo[1,5-a]pyridin-3-yl)-ethyl]-pyrrolidin-2-yl}-phenyl)-acrylamide]
33 | 8.15 | 8.10 | Cc1nn(C(C)(C)C)c(C)c1CCN1CCC[C@H]1c1ccc(/C=C/C(=O)NO)cc1 [Compound 61, (E)-3-(4-{(S)-1-[2-(1-tert-Butyl-3,5-dimethyl-1H-pyrazol-4-yl)-ethyl]-pyrrolidin-2-yl}-phenyl)-N-hydroxy-acrylamide]
